Reference: ChEMBL document CHEMBL3739419, “Influence of Sugar Amine Regiochemistry on Digitoxigenin Neoglycoside Anticancer Activity” (ACS Med Chem Lett, 2015)

system: A549; experiment: Anticancer activity against human A549 cells by alamar blue assay; type: functional, cell-based

Row | SMILES | IC50 [µM]
1 | CON([C@H]1CC[C@@]2(C)[C@H](CC[C@@H]3[C@@H]2CC[C@]2(C)[C@@H](C4=CC(=O)OC4)CC[C@]32O)C1)[C@@H]1OC[C@@H](O)[C@H](N)[C@H]1O | 0.01
2 | CON([C@H]1CC[C@@]2(C)[C@H](CC[C@@H]3[C@@H]2CC[C@]2(C)[C@@H](C4=CC(=O)OC4)CC[C@]32O)C1)[C@@H]1OC[C@@H](N)[C@H](O)[C@H]1O | 0.043
3 | CON([C@H]1CC[C@@]2(C)[C@H](CC[C@@H]3[C@@H]2CC[C@]2(C)[C@@H](C4=CC(=O)OC4)CC[C@]32O)C1)[C@@H]1O[C@H](CO)[C@@H](O)[C@H](N=[N+]=[N-])[C@H]1O | 0.39
4 | CON([C@H]1CC[C@@]2(C)[C@H](CC[C@@H]3[C@@H]2CC[C@]2(C)[C@@H](C4=CC(=O)OC4)CC[C@]32O)C1)[C@@H]1O[C@H](CO)[C@@H](N=[N+]=[N-])[C@H](O)[C@H]1O | 0.13
5 | CON([C@H]1CC[C@@]2(C)[C@H](CC[C@@H]3[C@@H]2CC[C@]2(C)[C@@H](C4=CC(=O)OC4)CC[C@]32O)C1)[C@@H]1O[C@H](CO)[C@@H](O)[C@H](N)[C@H]1O | 0.034
6 | CON([C@H]1CC[C@@]2(C)[C@H](CC[C@@H]3[C@@H]2CC[C@]2(C)[C@@H](C4=CC(=O)OC4)CC[C@]32O)C1)[C@@H]1OC[C@@H](O)[C@H](N=[N+]=[N-])[C@H]1O | 0.017
7 | CON([C@H]1CC[C@@]2(C)[C@H](CC[C@@H]3[C@@H]2CC[C@]2(C)[C@@H](C4=CC(=O)OC4)CC[C@]32O)C1)[C@@H]1O[C@H](CO)[C@@H](N)[C@H](O)[C@H]1O | 0.02
8 | CON([C@H]1CC[C@@]2(C)[C@H](CC[C@@H]3[C@@H]2CC[C@]2(C)[C@@H](C4=CC(=O)OC4)CC[C@]32O)C1)[C@@H]1OC[C@@H](N=[N+]=[N-])[C@H](O)[C@H]1O | 0.034
9 | CON([C@H]1CC[C@@]2(C)[C@H](CC[C@@H]3[C@@H]2CC[C@]2(C)[C@@H](C4=CC(=O)OC4)CC[C@]32O)C1)[C@@H]1O[C@H](CO)[C@@H](O)[C@H](O)[C@H]1O | 1.6
